Assay results from PubChem BioAssay (NCI).
Values joined by “and” are separate entries in the source; they are usually repeats but may differ in a detail not shown here. Equal values may be shown once.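 Tested at 5 concentrations; 48 h exposure; 96-well plates; endpoints linearly interpolated, else capped at highest concentration. GI50 marks 50% less growth. The concentration for full growth arrest is given as TGI.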

Key:
Assay in all cases: NCI anticancer screen, dose series, 48 h
[1] = system: SN12C renal
[2] = system: SF-539 CNS
[3] = system: NCI/ADR-RES ovarian
[4] = system: A498 renal
[5] = system: U251 CNS
[6] = system: HCT-116 colon
[7] = system: BT-549 breast
[8] = system: UACC-257 melanoma
[9] = system: NCI-H226 lung
[10] = system: HCT-15 colon

Structure (SMILES)	GI50 [1]	TGI [1]	GI50 [2]	TGI [2]	GI50 [3]	TGI [3]	GI50 [4]	TGI [4]	GI50 [5]	TGI [5]	GI50 [6]	TGI [6]	GI50 [7]	TGI [7]	GI50 [8]	TGI [8]	GI50 [9]	TGI [9]	GI50 [10]	TGI [10]
O=C1C(=O)c2c(nc3ccc(C(F)(F)F)cn23)-c2ccccc21	0.186 µM	0.354 µM	0.169 µM	0.313 µM	0.23 µM	0.581 µM	1.82 µM	3.25 µM	0.185 µM	0.377 µM	0.176 µM	0.354 µM	0.186 µM	0.442 µM	0.193 µM	0.363 µM	0.72 µM	1.77 µM	0.202 µM	0.656 µM
C1=CC(=P(c2ccccc2)(c2ccccc2)c2ccccc2)C=C1		43.4 µM		29.1 µM												20.3 µM				> 100 µM
CC(C)Cc1cnc(CC(C)C)c(=O)[nH]1		> 100 µM						> 100 µM		> 100 µM		> 100 µM		> 100 µM		> 100 µM				> 100 µM
N#Cc1nc(CCc2nc(C#N)c(N)o2)oc1N		> 10 µM		> 10 µM		> 10 µM						> 10 µM		> 10 µM		> 10 µM		> 10 µM		> 10 µM
CN1CCCC2[C@@H]3CCC4c5nonc5CC[C@]4(C)C3CC[C@@]21C (stereo partly specified)		> 100 µM		> 100 µM						> 100 µM		> 100 µM				> 100 µM		> 100 µM		> 100 µM
COc1ccc(-c2nc3ccccc3s2)cc1OC		> 100 µM		> 100 µM		> 100 µM				> 100 µM		> 100 µM		57.6 µM		> 100 µM				> 100 µM
CCN(CC)C(=S)SSC(C)C	14.3 µM	30.5 µM	18.4 µM	42.9 µM	16 µM	35.7 µM			13.8 µM	32.1 µM			13.4 µM	30.5 µM	21.7 µM	95.8 µM	29.4 µM	> 100 µM	22 µM	65.4 µM
CC(=O)N1[C@H](C(=O)O)CS[C@H]1c1ccc(F)cc1		> 100 µM		> 100 µM				> 100 µM				78.7 µM				> 100 µM		> 100 µM		> 100 µM
Cc1cccc(N2C(=O)/C(=C/C(Cl)=C/c3ccc([N+](=O)[O-])cc3)SC2=S)c1C	2.03 µM	5.05 µM	2.37 µM	6.76 µM	2.97 µM	> 100 µM			1.95 µM	5.94 µM	1.33 µM	3.08 µM	1.61 µM	4.08 µM					0.874 µM	4.77 µM
CC(C)(C)C#COC(=O)c1ccccc1		> 100 µM		> 100 µM				> 100 µM		> 100 µM		> 100 µM				> 100 µM		> 100 µM		> 100 µM
O=c1c(Cc2ccccc2)c(O)cc2n1CCC2		> 100 µM		> 100 µM				> 100 µM		> 100 µM		> 100 µM				> 100 µM		> 100 µM		> 100 µM
N/N=C(/Cc1ccccc1)NNO				> 100 µM				> 100 µM				> 100 µM				> 100 µM		> 100 µM		> 100 µM
COc1cc(C)c2c(c1)CN1CN2Cc2cc(OC)cc(C)c21		> 100 µM		> 100 µM						> 100 µM		> 100 µM						> 100 µM		> 100 µM
O=C(c1ccccc1)C1N=NN(Cc2ccccc2[N+](=O)[O-])C1C(=O)c1ccccc1 (stereo unspecified)										> 100 µM		> 100 µM				> 100 µM		> 100 µM		> 100 µM
Cc1ccc(C2=CC(=O)c3ccccc3C2=O)n1-c1ccccc1		> 100 µM		> 100 µM						> 100 µM		> 100 µM						84.8 µM		
NCCO/C=C/C(N)C(=O)O (stereo unspecified)		> 100 µM		> 100 µM		> 100 µM				> 100 µM		> 100 µM		> 100 µM		> 100 µM		> 100 µM		> 100 µM
CC(=O)Nc1ccc(C2CC(c3ccc([N+](=O)[O-])cc3)=Nc3ccccc3S2)cc1 (stereo unspecified)		33 µM		33.5 µM				33.3 µM		29.8 µM		25.1 µM				29.2 µM		86.3 µM		37.2 µM
Cc1cc2c(c(C(=O)O)c1C)-c1cccc(Cl)c1C2=O		> 100 µM								> 100 µM						> 100 µM		> 100 µM		> 100 µM
Cn1c(=O)oc2cc(C3CCC(=O)N3Cc3csc(-c4ccccc4)n3)ccc21 (stereo unspecified)		> 100 µM		> 100 µM						> 100 µM		> 100 µM				> 100 µM		> 100 µM		> 100 µM
Cc1cc(Cl)ccc1NC(=O)CCCC(=O)C1C/C(=N/O)CC/C1=N\O (stereo unspecified)		> 100 µM		> 100 µM				> 100 µM		> 100 µM		> 100 µM				> 100 µM		> 100 µM		> 100 µM
CCOc1c(Br)cc(Br)cc1C=C(C#N)C#N		> 10 µM		6.21 µM		4.98 µM		8.8 µM		> 10 µM		> 10 µM						> 10 µM		> 10 µM
Cc1cc(=O)[nH]c(NNC(C#N)c2cccc([N+](=O)[O-])c2)n1 (stereo unspecified)		> 100 µM		> 100 µM						> 100 µM		> 100 µM				> 100 µM		> 100 µM		> 100 µM
CCOc1ccc(NC(=O)/C(CC(=O)c2c[n+](=O)c3ccccc3n2[O-])=N\OCCCc2ccccc2)cc1		> 100 µM		> 100 µM				> 100 µM		> 100 µM		> 100 µM				> 100 µM		> 100 µM		> 100 µM

Structure (SMILES)	GI50 [1]	TGI [1]	GI50 [2]	TGI [2]	GI50 [3]	TGI [3]	GI50 [4]	TGI [4]	GI50 [5]	TGI [5]	GI50 [6]	TGI [6]	GI50 [7]	TGI [7]	GI50 [8]	TGI [8]	GI50 [9]	TGI [9]	GI50 [10]	TGI [10]
c1ccc2c(c1)[nH]c1c2nc2ccccn21		> 100 µM		> 100 µM				> 100 µM		> 100 µM		> 100 µM				> 100 µM		> 100 µM		> 100 µM
c1cnc2c(c1)-n1cccc1C1(CCCCC1)NN2		> 100 µM		> 100 µM								> 100 µM				> 100 µM		> 100 µM		> 100 µM
O=C1c2ccccc2-c2nc3ccncc3n21		> 100 µM		> 100 µM		> 100 µM				> 100 µM		> 100 µM		> 100 µM		> 100 µM		> 100 µM		> 100 µM
Cc1c(C)c([N+](=O)[O-])c2c(c1N)C(=O)c1ccccc1C2=O		> 100 µM		> 100 µM				> 100 µM		> 100 µM		> 100 µM				> 100 µM		> 100 µM		> 100 µM
O=c1c(-c2ccc3c(c2)OCO3)coc2c3c(ccc12)OCO3		> 100 µM		58.7 µM				83.1 µM		> 100 µM		> 100 µM		32.6 µM		> 100 µM				> 100 µM
O=C1CC23CCCCCCCCCCC2(C1)CC(=O)C3 (stereo unspecified)		38.6 µM		> 100 µM						75.6 µM						> 100 µM		> 100 µM		> 100 µM
Cc1ccccc1NC(=O)CSc1nnc(-c2ccc(N=Cc3ccc(Cl)cc3)cc2)o1		> 100 µM								> 100 µM		> 100 µM				> 100 µM		> 100 µM		> 100 µM
COC1(OC)C2(Cl)C3=CCCC=C3C1(Cl)C(Cl)=C2Cl		> 100 µM		> 100 µM						82.1 µM		43.9 µM				75.1 µM		82.4 µM		> 100 µM
Cc1cccc(C)c1NC(=O)C(=O)Cc1nc2ccccc2s1		> 100 µM		> 100 µM				> 100 µM		> 100 µM		> 100 µM				> 100 µM		> 100 µM		> 100 µM
COc1cc(N2C(=O)[C@H](Cl)C2c2ccc(SC)cc2)cc(OC)c1OC (stereo partly specified)	0.348 µM	> 100 µM	0.0307 µM	0.163 µM	0.0356 µM	> 100 µM			0.124 µM	> 100 µM	0.035 µM	1 µM	0.0989 µM	0.748 µM	32.2 µM	> 100 µM	0.37 µM	> 100 µM	0.047 µM	> 100 µM
CC1CCC2C(C)C(=O)OC2C2(C)C(=O)C=CC12 (stereo unspecified)		> 10 µM		> 10 µM		> 10 µM				> 10 µM		> 10 µM				> 10 µM		> 10 µM		> 10 µM
COC(=O)C1CC(c2ccc(OC)c(OC)c2)OC1=O (mixture of isomers)		> 100 µM		> 100 µM				> 100 µM		> 100 µM		> 100 µM				> 100 µM		> 100 µM		> 100 µM
OCC(O)C(O)C(O)C(/C=N\Nc1ncnc2c(Br)cc(Br)cc12)=N/Nc1ncnc2c(Br)cc(Br)cc12 (stereo unspecified)	5.09 µM and 24.8 µM	18.8 µM and > 100 µM		33.9 µM			22.5 µM and > 100 µM	38.8 µM and > 100 µM			19.1 µM and 3.44 µM	> 100 µM				33.2 µM and > 100 µM		9.42 µM		
COc1cc2c(cc1C)NC(=O)/C2=C/c1ccnc2ccccc12	12.6 µM	> 50 µM	20.8 µM	> 50 µM	15.6 µM	41.2 µM			9.92 µM	35.9 µM	24.4 µM	> 50 µM	29.1 µM	> 50 µM	9.77 µM	48.9 µM			20.5 µM	> 50 µM
COc1ccc(-n2cc(-c3ccc(OC)c(OC)c3)[nH]c2=O)cc1	> 100 µM	> 100 µM			> 100 µM	> 100 µM	> 100 µM	> 100 µM	> 100 µM	> 100 µM	> 100 µM	> 100 µM					> 100 µM	> 100 µM	> 100 µM	> 100 µM
COc1cc(O)ccc1C(=S)SC		9.56 µM		> 100 µM		> 100 µM				> 100 µM		> 100 µM		> 100 µM		> 100 µM		76.9 µM		> 100 µM
COC(=O)C1C=CCC2CCCCC21N1CCCC1 (stereo unspecified)		> 100 µM		> 100 µM				> 100 µM		> 100 µM		> 100 µM				> 100 µM		> 100 µM		> 100 µM
COc1cc2c(cc1OCCNC(=O)/C=C1\C[C@H]3C=Nc4cc(OCc5ccccc5)c(OC)cc4C(=O)N3C1)N=C[C@@H]1CCCN1C2=O	2.68 µM	15.8 µM			> 100 µM	> 100 µM			2.82 µM	8.35 µM	2.93 µM	11.9 µM	17 µM	> 100 µM			32 µM	60.1 µM	37.4 µM	> 100 µM
COc1ccc(-c2ccc(C3CC(c4ccccc4)=NN3)o2)c([N+](=O)[O-])c1 (stereo unspecified)	56.4 µM	> 100 µM	64.7 µM	> 100 µM	33.9 µM	> 100 µM	68.4 µM	> 100 µM	57.3 µM	> 100 µM	33.5 µM	> 100 µM	47.4 µM	> 100 µM					37.4 µM	> 100 µM
CSc1nc(Nc2cccc(NC(=O)CCl)c2)c(C#N)c(-c2cccc([N+](=O)[O-])c2)n1	2.78 µM	10.3 µM	0.216 µM	0.528 µM	2.38 µM	7.64 µM	12.4 µM	37.6 µM	1.6 µM	3.13 µM			1.79 µM	5.68 µM	2.18 µM	5.2 µM	2.15 µM	6.32 µM	1.66 µM	4.1 µM
O=c1c(Cc2ccc3c(c2)OCO3)nnc2sc(-c3cc(F)c(Cl)cc3Cl)nn12	62.6 µM	> 100 µM			63.7 µM	> 100 µM			35.7 µM	> 100 µM	23.5 µM	> 100 µM	27.4 µM	56 µM	62.5 µM	> 100 µM	85.6 µM	> 100 µM	70.6 µM	> 100 µM
O=C1NC(O)n2c(=O)[nH]c(=O)n21 (stereo unspecified)		> 100 µM		> 100 µM						> 100 µM		> 100 µM				> 100 µM		> 100 µM		> 100 µM
